Test system: MOLM-13 cells
Experiment: MOLM-13 Cell Proliferation Assay (indicator of DHODH inhibition)
Format: cell-based
Details: Homo sapiens, 72 Hours of culture, CellTiter-Glo, no uridine
Outline: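 Proliferation readout via CellTiter-Glo luminescence after 72 h compound treatment (37 °C, 5% CO2, 0.5% DMSO) of MOLM-13 cells seeded at 10^4 per well in RPMI 1640/10% FBS, used as a DHODH-inhibition indicator since these cells rely on de novo pyrimidine synthesis.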

SMILES | IC50 [nM]
Cc1ccc(C2c3[nH]c4ccc(Cl)cc4c3CCN2c2nccc(N(C)C)n2)c(F)c1F (stereo not drawn) [Compound 306, 2-[6-chloro-1-(2,3-difluoro-4-methylphenyl)-1,3,4,9-tetrahydro-2H-pyrido[3,4-b]indol-2-yl]-N,N-dimethylpyrimidin-4-amine] | 20
Cc1ccc(C2c3[nH]c4ccc(Cl)cc4c3CCN2c2nccc(N(C)C)n2)cc1 (stereo not drawn) [Compound 307, 2-[6-chloro-1-(4-methylphenyl)-1,3,4,9-tetrahydro-2H-pyrido[3,4-b]indol-2-yl]-N,N-dimethylpyrimidin-4-amine] | 99.2
Cc1cc(C)nc(N2CCc3c([nH]c4ccc(Cl)cc34)C2c2cnc(N3CCOCC3)nc2)n1 (stereo not drawn) [Compound 308, 6-chloro-2-(4,6-dimethylpyrimidin-2-yl)-1-[2-(morpholin-4-yl)pyrimidin-5-yl]-2,3,4,9-tetrahydro-1H-pyrido[3,4-b]indole] | 3.8
Cc1nc(C)nc(N2CCc3c([nH]c4c(N)cc(Cl)cc34)C2c2cnc(N3CCOCC3)nc2)n1 (stereo not drawn) [Compound 309, 6-chloro-2-(4,6-dimethyl-1,3,5-triazin-2-yl)-1-[2-(morpholin-4-yl)pyrimidin-5-yl]-2,3,4,9-tetrahydro-1H-pyrido[3,4-b]indol-8-amine] | 5.6
Cc1ccnc(N2CCc3c([nH]c4ccc(Cl)cc34)C2c2cnc(N3CCOCC3)nc2)n1 (stereo not drawn) [Compound 312, 6-chloro-2-(4-methylpyrimidin-2-yl)-1-[2-(morpholin-4-yl)pyrimidin-5-yl]-2,3,4,9-tetrahydro-1H-pyrido[3,4-b]indole] | 7.4
Cc1nc(C)nc(N2CCc3c([nH]c4ccc([N+](=O)[O-])cc34)C2c2cnc(N3CCOCC3)nc2)n1 (stereo not drawn) [Compound 313, 2-(4,6-dimethyl-1,3,5-triazin-2-yl)-1-[2-(morpholin-4-yl)pyrimidin-5-yl]-6-nitro-2,3,4,9-tetrahydro-1H-pyrido[3,4-b]indole] | 18.1
FC(F)(F)c1ccnc(N2CCc3c([nH]c4ccc(-n5cccc5)cc34)C2c2cnc(N3CCOCC3)nc2)n1 (stereo not drawn) [Compound 314, 1-[2-(morpholin-4-yl)pyrimidin-5-yl]-6-(1H-pyrrol-1-yl)-2-[4-(trifluoromethyl)pyrimidin-2-yl]-2,3,4,9-tetrahydro-1H-pyrido[3,4-b]indole] | 22.2
CCCCN(CCCC)c1nc(C)nc(N2CCc3c([nH]c4ccc(Cl)cc34)C2c2cnc(N3CCOCC3)nc2)n1 (stereo not drawn) [Compound 315, N,N-dibutyl-4-{6-chloro-1-[2-(morpholin-4-yl)pyrimidin-5-yl]-1,3,4,9-tetrahydro-2H-pyrido[3,4-b]indol-2-yl}-6-methyl-1,3,5-triazin-2-amine] | 11.7
CCCCOc1nc(C)nc(N2CCc3c([nH]c4ccc(Cl)cc34)C2c2cnc(N3CCOCC3)nc2)n1 (stereo not drawn) [Compound 318, 2-(4-butoxy-6-methyl-1,3,5-triazin-2-yl)-6-chloro-1-[2-(morpholin-4-yl)pyrimidin-5-yl]-2,3,4,9-tetrahydro-1H-pyrido[3,4-b]indole] | 4.3
FC(F)(F)c1ccnc(N2CCc3c([nH]c4ccc(Cl)cc34)C2c2ccc(Cl)nc2Cl)n1 (stereo not drawn) [Compound 319, 6-chloro-1-(2,6-dichloropyridin-3-yl)-2-[4-(trifluoromethyl)pyrimidin-2-yl]-2,3,4,9-tetrahydro-1H-pyrido[3,4-b]indole] | 82.1
Cc1nc(C)nc(N2CCc3c([nH]c4c(N)cc(Cl)cc34)C2c2ccc(N3CCOCC3)nc2)n1 (stereo not drawn) [Compound 321, 6-chloro-2-(4,6-dimethyl-1,3,5-triazin-2-yl)-1-[6-(morpholin-4-yl)pyridin-3-yl]-2,3,4,9-tetrahydro-1H-pyrido[3,4-b]indol-8-amine] | 7
Cc1ccc(C2c3[nH]c4ccc(Cl)cc4c3CCN2c2ncnc(C)n2)cc1 (stereo not drawn) [Compound 322, 6-chloro-1-(4-methylphenyl)-2-(4-methyl-1,3,5-triazin-2-yl)-2,3,4,9-tetrahydro-1H-pyrido[3,4-b]indole] | 25.9
O=[N+]([O-])c1ccc2[nH]c3c(c2c1)CCN(c1nccc(C(F)(F)F)n1)C3c1cnc(N2CCOCC2)nc1 (stereo not drawn) [Compound 323, 1-[2-(morpholin-4-yl)pyrimidin-5-yl]-6-nitro-2-[4-(trifluoromethyl)pyrimidin-2-yl]-2,3,4,9-tetrahydro-1H-pyrido[3,4-b]indole] | 3.6
Cc1nc(C)nc(N2CCc3c([nH]c4ccc(Cl)c([N+](=O)[O-])c34)C2c2cnc(N3CCOCC3)nc2)n1 (stereo not drawn) [Compound 325, 4-[5-[6-chloro-2-(4,6-dimethyl-1,3,5-triazin-2-yl)-5-nitro-1,3,4,9-tetrahydropyrido[3,4-b]indol-1-yl]pyrimidin-2-yl]morpholine] | 167
O=[N+]([O-])c1c(Cl)ccc2[nH]c3c(c12)CCN(c1nccc(C(F)(F)F)n1)C3c1cnc(N2CCOCC2)nc1 (stereo not drawn) [Compound 326, 6-chloro-1-[2-(morpholin-4-yl)pyrimidin-5-yl]-5-nitro-2-[4-(trifluoromethyl)pyrimidin-2-yl]-2,3,4,9-tetrahydro-1H-pyrido[3,4-b]indole] | 29.7
Cc1nc(C)nc(N2CCc3c([nH]c4ccc(Cl)c(N)c34)C2c2cnc(N3CCOCC3)nc2)n1 (stereo not drawn) [Compound 327, 6-chloro-2-(4,6-dimethyl-1,3,5-triazin-2-yl)-1-[2-(morpholin-4-yl)pyrimidin-5-yl]-2,3,4,9-tetrahydro-1H-pyrido[3,4-b]indol-5-amine] | 31.9
CN(C)c1ccc2[nH]c3c(c2c1)CCN(c1nccc(C(F)(F)F)n1)C3c1cnc(N2CCOCC2)nc1 (stereo not drawn) [Compound 329, N,N-dimethyl-1-[2-(morpholin-4-yl)pyrimidin-5-yl]-2-[4-(trifluoromethyl)pyrimidin-2-yl]-2,3,4,9-tetrahydro-1H-pyrido[3,4-b]indol-6-amine] | 35.4
Cc1nc(C)nc(N2CCc3c([nH]c4ccc(N(C)C)cc34)C2c2cnc(N3CCOCC3)nc2)n1 (stereo not drawn) [Compound 331, 2-(4,6-dimethyl-1,3,5-triazin-2-yl)-N,N-dimethyl-1-[2-(morpholin-4-yl)pyrimidin-5-yl]-2,3,4,9-tetrahydro-1H-pyrido[3,4-b]indol-6-amine] | 102
Cc1ccc(C2c3[nH]c4ccc(Cl)cc4c3CCN2c2nccc(C)n2)cc1 (stereo not drawn) [Compound 332, 6-chloro-1-(4-methylphenyl)-2-(4-methylpyrimidin-2-yl)-2,3,4,9-tetrahydro-1H-pyrido[3,4-b]indole] | 11.8
FC(F)c1ccnc(N2CCc3c([nH]c4ccc(Cl)cc34)C2c2cnc(N3CCOCC3)nc2)n1 (stereo not drawn) [Compound 334, 6-chloro-2-[4-(difluoromethyl)pyrimidin-2-yl]-1-[2-(morpholin-4-yl)pyrimidin-5-yl]-2,3,4,9-tetrahydro-1H-pyrido[3,4-b]indole] | 13
FC(F)(F)c1ccnc(N2CCc3c([nH]c4ccc(Cl)cc34)C2c2cnc(N3CC4CC3CO4)nc2)n1 (stereo not drawn) [Compound 335, 6-chloro-1-[2-(2-oxa-5-azabicyclo[2.2.1]heptan-5-yl)pyrimidin-5-yl]-2-[4-(trifluoromethyl)pyrimidin-2-yl]-2,3,4,9-tetrahydro-1H-pyrido[3,4-b]indole] | 7.6
Cc1nc(C)nc(N2CCc3c([nH]c4ccc(Cl)cc34)C2c2cnc(N3CC4CC3CO4)nc2)n1 (stereo not drawn) [Compound 336, 6-chloro-2-(4,6-dimethyl-1,3,5-triazin-2-yl)-1-[2-(2-oxa-5-azabicyclo[2.2.1]heptan-5-yl)pyrimidin-5-yl]-2,3,4,9-tetrahydro-1H-pyrido[3,4-b]indole] | 52.2
FC(F)(F)c1ccnc(N2CCc3c([nH]c4ccc(Cl)cc34)C2c2cnc(N3C4CCC3COC4)nc2)n1 (stereo not drawn) [Compound 337, 6-chloro-1-[2-(3-oxa-8-azabicyclo[3.2.1]octan-8-yl)pyrimidin-5-yl]-2-[4-(trifluoromethyl)pyrimidin-2-yl]-2,3,4,9-tetrahydro-1H-pyrido[3,4-b]indole] | 8.2
Cc1nc(C)nc(N2CCc3c([nH]c4ccc(Cl)cc34)C2c2cnc(N3C4CCC3COC4)nc2)n1 (stereo not drawn) [Compound 338, 6-chloro-2-(4,6-dimethyl-1,3,5-triazin-2-yl)-1-[2-(3-oxa-8-azabicyclo[3.2.1]octan-8-yl)pyrimidin-5-yl]-2,3,4,9-tetrahydro-1H-pyrido[3,4-b]indole] | 35
Cc1nc(C)nc(N2CCc3c([nH]c4c(O)cc(Cl)cc34)C2c2ccc(N3CCOCC3)nc2)n1 (stereo not drawn) [Compound 339, 6-chloro-2-(4,6-dimethyl-1,3,5-triazin-2-yl)-1-[6-(morpholin-4-yl)pyridin-3-yl]-2,3,4,9-tetrahydro-1H-pyrido[3,4-b]indol-8-ol] | 13.5
Fc1ccccc1C1c2[nH]c3ccc(Cl)cc3c2CCN1c1nccc(C(F)(F)F)n1 (stereo not drawn) [Compound 341, 6-chloro-1-(2-fluorophenyl)-2-[4-(trifluoromethyl)pyrimidin-2-yl]-2,3,4,9-tetrahydro-1H-pyrido[3,4-b]indole] | 6.8
Cc1cc(C)nc(N2CCc3c([nH]c4ccc(Cl)cc34)C2c2ccc(C)c(F)c2F)n1 (stereo not drawn) [Compound 342, 6-chloro-1-(2,3-difluoro-4-methylphenyl)-2-(4,6-dimethylpyrimidin-2-yl)-2,3,4,9-tetrahydro-1H-pyrido[3,4-b]indole] | 1
FC(F)(F)c1ccnc(N2CCc3c([nH]c4ccc(Cl)cc34)C2c2cnc(N3CCC3)nc2)n1 (stereo not drawn) [Compound 344, 1-[2-(azetidin-1-yl)pyrimidin-5-yl]-6-chloro-2-[4-(trifluoromethyl)pyrimidin-2-yl]-2,3,4,9-tetrahydro-1H-pyrido[3,4-b]indole] | 9.5
Cc1nc(C)nc(N2CCc3c([nH]c4ccc(Cl)cc34)C2c2cnc(N3CCC3)nc2)n1 (stereo not drawn) [Compound 345, 1-[2-(azetidin-1-yl)pyrimidin-5-yl]-6-chloro-2-(4,6-dimethyl-1,3,5-triazin-2-yl)-2,3,4,9-tetrahydro-1H-pyrido[3,4-b]indole] | 43.2
CSc1ncc(C2c3[nH]c4ccc(Cl)cc4c3CCN2c2nc(C)nc(C)n2)cn1 (stereo not drawn) [Compound 346, 6-chloro-2-(4,6-dimethyl-1,3,5-triazin-2-yl)-1-[2-(methylsulfanyl)pyrimidin-5-yl]-2,3,4,9-tetrahydro-1H-pyrido[3,4-b]indole] | 5.2

From patent US20250186437A1, “CARBOLINE COMPOUNDS AND USE THEREOF” (PTC Therapeutics, Inc., priority 2021, published 2025)
